Common to all, as to experiment: SRB growth inhibition, 93 cell lines panel
Holding throughout (assay type): cell-based

The test system of one assay is 22RV1. To be noted: Homo sapiens; 22RV1, prostate; read-out: GI50 of etoposide (±Compound 1). How it is done:
(§1) 90 μl of cells, after a 48-hour pre-growth period, were treated by mixing with 10 μl of the compound-containing media (resulting in a final DMSO concentration of 0.1%).
(§2) This is the drug concentration causing a 50% reduction compared to the net protein increase in control cells during the drug incubation period. In other words, G150 is IC50 corrected for time zero. […] TGI was calculated from Ti=Tz. […] It was calculated as 100×[(Ti−Tz)/Tz]=−50.

The next assay deals with C33A. To be noted: Homo sapiens, C-33-A, cervix, read-out: GI50 of etoposide (±Compound 1). The protocol: as §1, §2
In a further assay the test system is CALU6. Particulars: Homo sapiens, Calu-6; CALU6, lung; read-out: GI50 of etoposide (±Compound 1). The protocol:
as §1, §2

The test system of another assay is LOVO. Particulars: Homo sapiens, colon, read-out: GI50 of etoposide (±Compound 1). The protocol: as §1, §2
The test system of a further assay is MCF7. To be noted: Homo sapiens; MCF7, breast; read-out: GI50 of etoposide (±Compound 1). How it is done: as §1, §2
Another assay relates to THP-1. Particulars: Homo sapiens; THP-1, hematological; read-out: GI50 of etoposide (±Compound 1). The protocol: as §1, §2

In general, GI50 refers to the concentration that inhibits growth by half.

For `COc1cc([C@@H]2c3cc4c(cc3[C@@H](O[C@@H]3O[C@@H]5CO[C@@H](C)O[C@H]5[C@H](O)[C@H]3O)[C@H]3COC(=O)[C@H]23)OCO4)cc(OC)c1O` [Etoposide], the concentration for 50% growth inhibition (GI50) is 234 nM in the assay on 22RV1; 393 nM with C33A; 3650 nM with CALU6; 606 nM with LOVO; 1290 nM in the assay on MCF7; 110 nM in the assay with THP-1.

(Values after patent US11246929B2, “Combination of a protein kinase inhibitor and an additional chemotherapeutic agent” (Merck Patent GmbH, priority 2016, dated 2022).)
